In patent US4792545A, “Boholmycin antibiotic” (Bristol-Myers Company, priority 1986, dated 1988):
Converted amounts (≈) assume the structure as drawn. Where two headings read alike, the source gives them in different places.

Tests used:
[1] = system: S. aureus 209P; assay: MIC by serial agar dilution; type: cell-based; conditions: S. aureus 209P, medium A: Nutrient agar
[2] = system: S. aureus Smith; assay: MIC by serial agar dilution; type: cell-based; conditions: S. aureus Smith, medium A: Nutrient agar
[3] = system: S. aureus A20239; assay: MIC by serial agar dilution; type: cell-based; conditions: S. aureus A20239, kanamycin resistant strain, medium A: Nutrient agar
[4] = system: M. luteus PCI-1001; assay: MIC by serial agar dilution; type: cell-based; conditions: M. luteus PCI-1001, medium A: Nutrient agar
[5] = system: M. flavus D-12; assay: MIC by serial agar dilution; type: cell-based
[6] = system: B. subtilis ATCC6633; assay: MIC by serial agar dilution; type: cell-based; conditions: medium A: Nutrient agar
[7] = system: B. anthracis IID-115; assay: microbe, parasite or virus in culture; type: cell-based
[8] = system: E. coli NIHJ; assay: MIC by serial agar dilution; type: cell-based; conditions: medium A: Nutrient agar
[9] = system: E. coli Juhl; assay: MIC by serial agar dilution; type: cell-based; conditions: medium A: Nutrient agar
[10] = system: E. coli K-12; assay: MIC by serial agar dilution; type: cell-based
[11] = system: E. coli A20664; assay: MIC by serial agar dilution; type: cell-based; conditions: E. coli A20664, kanamycin resistant strain, medium A: Nutrient agar
[12] = system: E. coli JR35/c600; assay: MIC by serial agar dilution; type: cell-based
[13] = system: K. pneumoniae D-11; assay: MIC by serial agar dilution; type: cell-based
[14] = system: K. pneumoniae A9678; assay: MIC by serial agar dilution; type: cell-based; conditions: medium A: Nutrient agar
[15] = system: E. cloacae A20364; assay: MIC by serial agar dilution; type: cell-based; conditions: E. cloacae A20364, kanamycin resistant strain, medium A: Nutrient agar
[16] = system: E. cloacae A21006; assay: MIC by serial agar dilution; type: cell-based; conditions: E. cloacae A21006, kanamycin resistant strain, medium A: Nutrient agar
[17] = system: P. mirabilis A9554; assay: MIC by serial agar dilution; type: cell-based; conditions: medium A: Nutrient agar
[18] = system: P. vulgaris A9436; assay: MIC by serial agar dilution; type: cell-based; conditions: medium A: Nutrient agar
[19] = system: S. marcescens A20019; assay: MIC by serial agar dilution; type: cell-based
[20] = system: S. marcescens A22302; assay: MIC by serial agar dilution; type: cell-based
[21] = system: P. aeruginosa A9930; assay: MIC by serial agar dilution; type: cell-based; conditions: medium A: Nutrient agar
[22] = system: P. aeruginosa A9843A; assay: microbe, parasite or virus in culture; type: cell-based
[23] = system: P. aeruginosa A20601; assay: MIC by serial agar dilution; type: cell-based; conditions: P. aeruginosa A20601, kanamycin resistant strain, medium A: Nutrient agar
[24] = system: Mycobacterium 607 D87; assay: MIC by serial agar dilution; type: cell-based; conditions: Mycobacterium 607 D87, medium B: No. 1001 medium
[25] = system: Mycobacterium 607 D46; assay: MIC by serial agar dilution; type: cell-based; conditions: Mycobacterium 607 D46, kanamycin resistant strain, medium B: No. 1001 medium
[26] = system: Mycobacterium phlei; assay: MIC by serial agar dilution; type: cell-based; conditions: Mycobacterium phlei, medium B: No. 1001 medium
[27] = system: Mycobacterium ranae; assay: MIC by serial agar dilution; type: cell-based; conditions: Mycobacterium ranae, medium B: No. 1001 medium
[28] = system: E. coli D64; assay: stimulating growth of streptomycin-dependent E. coli D64 (paper disc); type: cell-based; conditions: for Growth zone vs E. coli D64, hazy growth zone: value in parentheses
Text: The results are shown in Table 4 wherein the term "boholmycin" is used for short in referring to boholmycin dihydrochloride tetrahydrate.

[29] = system: B. subtilis PCI-219; assay: inhibiting growth of B. subtilis PCI-219 (paper disc); type: cell-based; conditions: Bacillus subtilis, PCI219, 28° C., 18 hours
Experimental: Boholmycin dihydrochloride tetrahydrate was tested in comparison with streptomycin, glebomycin, myomycin B and kanamycin in respect to stimulating growth of E. coli D64 and in respect to inhibiting growth of B. subtilis PCI-219. The results are shown in Table 4 wherein the term "boholmycin" is used for short in referring to boholmycin dihydrochloride tetrahydrate.
*^1 8 mm paper disc containing 35 μl of test solution
*^3 Incubation at 28° C. for 18 hours

[30] = system: S. aureus Smith; assay: in vivo efficacy in mice against experimental infection; conditions: mice, i.m. just before challenge, S. aureus Smith, 5 days observation
[31] = system: E. coli Juhl; assay: as above; conditions: mice, i.m. just before challenge, E. coli Juhl, 5 days observation
[32] = system: K. pneumoniae D-11; assay: as above; conditions: mice, i.m. just before challenge, K. pneumoniae D-11, 5 days observation
[33] = toxic signs in mice, intravenous administration; type: in vivo; conditions: up to a dose of 1,000 mg/kg
[34] = solubility; type: physicochemical
[35] = stability in solution; type: physicochemical
[36] = basicity; type: physicochemical
[37] = system: bacteria; assay: in vitro antibacterial activity, Table 3 panel overall; type: cell-based
Experimental: The minimum inhibitory concentration (MIC) of boholmycin dihydrochloride tetrahydrate was determined by a serial agar dilution method in comparison with sorbistin A1, streptomycin and kanamycin. Nutrient agar (Difco) was used for all bacteria except for strains of Mycobacterium which were tested in No. 1001 agar.

[38] = system: experimental infections produced by S. aureus, E. coli and K. pneumoniae; assay: in vivo activity in mice, Table 5 overall; conditions: i.m.
[39] = Staphylococcus aureus, read-out: MIC
[40] = Escherichia coli, read-out: MIC
[41] = Enterobacter cloacae, read-out: MIC
[42] = Pseudomonas aeruginosa, read-out: MIC

CNC1C(OC2C(O)C(OC3OC(CO)C(O)C(N)C3O)C(OC(N)=O)C(O)C2OC(N)=O)OCC(OC2OC(C(O)CO)C(O)C(O)C2O)C1O (stereo not drawn) [Boholmycin]
MIC [1, 39]: 200 µg/mL (≈ 262 µM) | MIC [2, 39]: 200 µg/mL (≈ 262 µM) | MIC [3, 39]: > 200 µg/mL | MIC ([4]; Micrococcus luteus, PCI1001, read-out: MIC): 200 µg/mL (≈ 262 µM) | MIC ([5]; Micrococcus flavus, D12, medium A: Nutrient agar, read-out: MIC): 100 µg/mL (≈ 131 µM) | MIC ([6]; Bacillus subtilis, read-out: MIC): 50 µg/mL (≈ 65.4 µM) | MIC ([7]; Bacillus anthracis, IID115): 25 µg/mL (≈ 32.7 µM) | MIC [8, 40]: 50 µg/mL (≈ 65.4 µM) | MIC [9, 40]: 100 µg/mL (≈ 131 µM) | MIC ([10]; Escherichia coli, K12, medium A: Nutrient agar, read-out: MIC): 25 µg/mL (≈ 32.7 µM) | MIC [11, 40]: 12.5 µg/mL (≈ 16.3 µM) | MIC ([12]; Escherichia coli, JR35/C600): 25 µg/mL (≈ 32.7 µM) | MIC ([13]; Klebsiella pneumoniae, D11, medium A: Nutrient agar, read-out: MIC): 6.3 µg/mL (≈ 8.24 µM) | MIC ([14]; Klebsiella pneumoniae, read-out: MIC): 100 µg/mL (≈ 131 µM) | MIC [15, 41]: 50 µg/mL (≈ 65.4 µM) | MIC [16, 41]: 50 µg/mL (≈ 65.4 µM) | MIC ([17]; Proteus mirabilis, read-out: MIC): 50 µg/mL (≈ 65.4 µM) | MIC ([18]; Proteus vulgaris, read-out: MIC): 6.3 µg/mL (≈ 8.24 µM) | MIC ([19]; Serratia marcescens, A20019): 100 µg/mL (≈ 131 µM) | MIC ([20]; Serratia marcescens, A22302): 100 µg/mL (≈ 131 µM) | MIC [21, 42]: 100 µg/mL (≈ 131 µM) | MIC ([22]; Pseudomonas aeruginosa, A9843A): 200 µg/mL (≈ 262 µM) | MIC [23, 42]: 12.5 µg/mL (≈ 16.3 µM) | MIC ([24]; read-out: MIC): 25 µg/mL (≈ 32.7 µM) | MIC ([25]; read-out: MIC): 25 µg/mL (≈ 32.7 µM) | MIC ([26]; Mycolicibacterium phlei, read-out: MIC): 6.3 µg/mL (≈ 8.24 µM) | MIC ([27]; read-out: MIC): 25 µg/mL (≈ 32.7 µM) | Growth zone vs E. coli D64, hazy growth zone ([28]; 10 mg/ml, 37° C., 45 hours): 16 mm | Growth zone vs E. coli D64 ([28]; 40 mg/ml, 37° C., 45 hours): 18 mm | Growth zone vs E. coli D64, hazy growth zone ([28]; 40 mg/ml, 37° C., 45 hours): 23 mm | induction/stimulation of growth of streptomycin-dependent E. coli D64 ([28]; result in words): induced the growth | zone of inhibition at 10000 µg/mL ([29]; 10 mg/ml): 30 mm | zone of inhibition at 40000 µg/mL ([29]; 40 mg/ml): 33 mm | ED50 ([30]; Staphylococcus aureus, im, 120 h, read-out: PD50): 75 mg/kg | ED50 ([31]; Escherichia coli, im, 120 h, read-out: PD50): 100 mg/kg | ED50 ([32]; Klebsiella pneumoniae, D11, im, 120 h, read-out: PD50): 65 mg/kg | toxic signs [33]: did not show any toxic signs | solubility in methanol and ethanol ([34]; methanol and ethanol): slightly soluble in methanol and ethanol | solubility in other organic solvents ([34]; other organic solvents): practically insoluble in other organic solvents | solubility in water ([34]; water): freely soluble in water | stability in alkaline solution ([35]; alkaline solution): unstable in alkaline solution | stability in neutral and acidic solution ([35]; neutral and acidic solution): reasonably stable in neutral and acidic solution | basicity [36]: weakly basic | antibacterial activity compared with sorbistin A1 ([37]; Table 3 overall, vs sorbistin A1): comparable to that of sorbistin A1 | antibacterial activity compared with streptomycin or kanamycin ([37]; Table 3 overall, vs streptomycin or kanamycin): generally weaker than that of streptomycin or kanamycin | activity against kanamycin and streptomycin-resistant organisms ([37]; resistant vs sensitive organisms): as active against kanamycin and streptomycin-resistant organisms as against the sensitive ones | in vivo activity compared with streptomycin and kanamycin [38]: much less active than streptomycin and kanamycin

CCC(=O)N[C@@H]1C(CO)O[C@H](O[C@@H]([C@H](N)[C@H](O)CO)[C@@H](O)CN)C(O)C1O (stereo partly drawn) [sorbistin A1]
MIC [1]: 50 µg/mL (≈ 126 µM) | MIC [2]: 50 µg/mL (≈ 126 µM) | MIC [3]: 100 µg/mL (≈ 252 µM) | MIC [4]: 50 µg/mL (≈ 126 µM) | MIC ([5]; medium A: Nutrient agar): 12.5 µg/mL (≈ 31.5 µM) | MIC [6]: 50 µg/mL (≈ 126 µM) | MIC ([7]; B. anthracis IID-115, medium A: Nutrient agar): 50 µg/mL (≈ 126 µM) | MIC [8]: 25 µg/mL (≈ 62.9 µM) | MIC [9]: 50 µg/mL (≈ 126 µM) | MIC ([10]; medium A: Nutrient agar): 25 µg/mL (≈ 62.9 µM) | MIC [11]: 25 µg/mL (≈ 62.9 µM) | MIC ([12]; E. coli JR35/c600, kanamycin resistant strain, medium A: Nutrient agar): 25 µg/mL (≈ 62.9 µM) | MIC ([13]; medium A: Nutrient agar): 6.3 µg/mL (≈ 15.9 µM) | MIC [14]: 100 µg/mL (≈ 252 µM) | MIC [15]: 50 µg/mL (≈ 126 µM) | MIC [16]: 50 µg/mL (≈ 126 µM) | MIC [17]: 50 µg/mL (≈ 126 µM) | MIC [18]: 50 µg/mL (≈ 126 µM) | MIC ([19]; S. marcescens A20019, medium A: Nutrient agar): > 200 µg/mL | MIC ([20]; S. marcescens A22302, kanamycin resistant strain, medium A: Nutrient agar): 400 µg/mL (≈ 1010 µM) | MIC [21]: 12.5 µg/mL (≈ 31.5 µM) | MIC ([22]; P. aeruginosa A9843A, medium A: Nutrient agar): 6.3 µg/mL (≈ 15.9 µM) | MIC [23]: 3.1 µg/mL (≈ 7.8 µM) | MIC [24]: 50 µg/mL (≈ 126 µM) | MIC [25]: 100 µg/mL (≈ 252 µM) | MIC [26]: 25 µg/mL (≈ 62.9 µM) | MIC [27]: 50 µg/mL (≈ 126 µM) | PD50 [30]: 50 mg/kg | PD50 [31]: 100 mg/kg | PD50 [32]: 75 mg/kg | in vivo activity compared with streptomycin and kanamycin [38]: much less active than streptomycin and kanamycin
